EP1714638A1, “Cosmetic deodorant composition comprising a combination of zinc salicylate or a derivative thereof with an aluminium salt antiperspirant active” (L'ORÉAL, priority 2005, dated 2006)

Assay: Deodorant efficacy test: odour intensity of incubated axillary sweat rated by an expert panel
Set-up: species or system humaine
Conditions: 24 heures d'incubation à 37°C, versus control sweat without active, scale 0-4
Description: Des recueils de sueur axillaire sont effectués en sauna sur 6 volontaires, les échantillons de sueur individuelle, conservés dans la glace pendant quelques heures, sont alors pratiquement inodores. Ils sont ensuite mélangés et répartis en aliquots de 1 ml. Les actifs sont rajoutés à ces aliquots, puis mis à incuber à l'étuve 37°C. Après 24 heures d'incubation, un jury d'experts évalue l'intensité de l'odeur comparativement à un échantillon témoin : 1 ml de sueur incubée sans ajout d'actif. L'intensité est évaluée sur une échelle de 0 (pas d'odeur) à 4 (très forte odeur).
Les résultats sont exprimés en % de variation de l'intensité de l'odeur comparativement à cet échantillon de sueur témoin (moyenne des % de variation à T24h). Δ = ((intensité odeur de l'échantillon témoin−intensité odeur de l'échantillon avec actif))/(intensité odeur de l'échantillon témoin) × 100 [formula]

Row | Compound | % de diminution de l'intensité de l'odeur (0,1 mg MA/ml de sueur) | also measured
1 | Oc1cc(Cl)ccc1Oc1ccc(Cl)cc1Cl [(B), 2,4,4'-trichloro-2'-hydroxydiphényléther] | – | % de diminution de l'intensité de l'odeur (0,4 mg MA/ml de sueur): -49%
2 | CCCCCC[C@@H](O)C/C=C\CCCCCCCC(=O)[O-].CCCCCC[C@@H](O)C/C=C\CCCCCCCC(=O)[O-].[Zn+2] [(C), Ricinoleate de zinc] | – | % de diminution de l'intensité de l'odeur (0,3 mg MA/ml de sueur): -4%
3 | Aluminium chlorohydrate [ACH] | -35% | –
4 | Salicylate de zinc [(A)] | -21% | –
